Where a name gives a salt, the structure may show the parent alone. Read-outs that look alike come from different tables or passages of the source.
Columns and labels:
[1] = in vivo; cited from earlier work
[2] = target: α7 nAChR (Rattus norvegicus, UniProt Q05941); experiment: biochemical; format: binding
[3] = target: α4β2 nAChRs (Rattus norvegicus, UniProt P09483+P12390); experiment: biochemical; format: binding
[4] = read-out: KI, inhibition of [^125I]Iodo-MLA binding

α7 nAChR, sequence (Q05941 23-502): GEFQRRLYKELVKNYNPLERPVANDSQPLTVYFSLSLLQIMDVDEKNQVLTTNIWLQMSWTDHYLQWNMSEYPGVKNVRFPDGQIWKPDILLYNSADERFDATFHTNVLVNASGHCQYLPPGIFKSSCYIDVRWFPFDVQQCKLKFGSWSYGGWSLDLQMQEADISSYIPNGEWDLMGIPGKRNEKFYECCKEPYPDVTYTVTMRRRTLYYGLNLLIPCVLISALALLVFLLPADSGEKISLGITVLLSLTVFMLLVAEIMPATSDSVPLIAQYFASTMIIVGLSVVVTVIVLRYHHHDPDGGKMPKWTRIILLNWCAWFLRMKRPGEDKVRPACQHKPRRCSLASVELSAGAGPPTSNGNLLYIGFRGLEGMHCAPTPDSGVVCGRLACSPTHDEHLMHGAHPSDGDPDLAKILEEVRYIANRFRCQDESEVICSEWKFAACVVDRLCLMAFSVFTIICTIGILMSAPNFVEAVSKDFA
α4β2 nAChRs, sequence (P12390 25-500): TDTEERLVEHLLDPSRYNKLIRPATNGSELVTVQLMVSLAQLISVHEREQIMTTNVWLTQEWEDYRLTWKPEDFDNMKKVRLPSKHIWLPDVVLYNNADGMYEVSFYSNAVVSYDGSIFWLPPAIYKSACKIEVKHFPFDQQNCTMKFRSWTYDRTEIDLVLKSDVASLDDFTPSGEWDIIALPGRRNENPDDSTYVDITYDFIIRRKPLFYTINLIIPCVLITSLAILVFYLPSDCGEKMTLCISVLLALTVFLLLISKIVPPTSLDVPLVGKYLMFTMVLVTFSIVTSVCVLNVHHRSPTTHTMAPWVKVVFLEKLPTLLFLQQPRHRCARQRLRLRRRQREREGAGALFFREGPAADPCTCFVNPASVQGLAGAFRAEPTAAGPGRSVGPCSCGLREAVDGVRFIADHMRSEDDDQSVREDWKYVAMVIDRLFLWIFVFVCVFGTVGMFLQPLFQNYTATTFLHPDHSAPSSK
α4β2 nAChRs, sequence (P09483 31-630): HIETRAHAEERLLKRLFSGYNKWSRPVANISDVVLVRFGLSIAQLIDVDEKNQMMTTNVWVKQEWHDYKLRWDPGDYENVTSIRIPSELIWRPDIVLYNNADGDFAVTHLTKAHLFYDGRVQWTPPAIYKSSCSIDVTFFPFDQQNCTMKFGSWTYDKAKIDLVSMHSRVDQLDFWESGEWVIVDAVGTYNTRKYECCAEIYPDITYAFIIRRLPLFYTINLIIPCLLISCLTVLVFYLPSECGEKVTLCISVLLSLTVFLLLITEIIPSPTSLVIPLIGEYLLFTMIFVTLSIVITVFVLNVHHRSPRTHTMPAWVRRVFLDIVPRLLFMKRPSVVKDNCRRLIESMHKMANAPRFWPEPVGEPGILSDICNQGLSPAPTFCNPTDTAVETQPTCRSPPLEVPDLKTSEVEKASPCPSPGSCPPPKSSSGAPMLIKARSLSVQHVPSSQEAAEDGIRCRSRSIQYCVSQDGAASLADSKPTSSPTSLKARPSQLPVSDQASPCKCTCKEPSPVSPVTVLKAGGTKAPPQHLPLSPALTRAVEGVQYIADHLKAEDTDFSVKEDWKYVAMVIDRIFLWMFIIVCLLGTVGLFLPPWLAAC

Q: Which “crossing of the blood-brain barrier” value [1] does the source give for α-Bungarotoxin here?
A: does not cross the blood-brain barrier

Q: And the “Ki for displacing [^125I]iodo-MLA (in words)” value [2]?
A: low nanomolar range

Q: And the Ki [2, 4]?
A: 0.002 ± 0.0001 µM

Q: With CCN1CC2(COC(=O)c3cc(I)ccc3N3C(=O)CC(C)C3=O)CCC(OC)C34C5CC6C(OC)CC(O)(C5C6OC)C(O)(C(OC)C23)C14 (stereo not shown) [iodo-MLA, Iodo-methyllycaconitine] as the compound, how does the Ki [3] read?
A: > 1 µM

Q: What about the “affinity at α4β2 nAChRs (in words)” value [3] of the same compound?
A: poor affinity

Q: With C(=Cc1ccccc1)C=C1CCCN=C1c1cccnc1 [3-Cinnamylidene-anabasine] as the compound, how does the Ki [2, 4] read?
A: 0.0153 ± 0.002 µM

Q: Which “displacing [^125I]iodo-MLA (in words)” value [2] does the source give for CO[C@H]1CC=C2CCN3CCC4=C(CC(=O)OC4)[C@]23C1 [Dihydro-β-erythroidine] here?
A: weak or ineffective

Q: And the Ki [2, 4]?
A: > 10 µM

Q: Which “crossing of the blood-brain barrier” value [1] does the source give for CCN1C[C@]2(COC(=O)c3ccccc3N3C(=O)C[C@H](C)C3=O)CC[C@H](OC)[C@@]34[C@@H]5C[C@H]6[C@H](OC)[C@@H]5[C@](O)(C[C@@H]6OC)[C@@](O)([C@@H](OC)[C@H]23)[C@@H]14 [MLA, Methyllycaconitine] here?
A: crosses the blood-brain barrier

Q: Which Ki [2] does the source give for CNC1(C)C2CCC(C2)C1(C)C (stereo not shown) [Mecamylamine] here?
A: > 10 µM

Q: What about the “displacing [^125I]iodo-MLA (in words)” value [2] of the same compound?
A: weak or ineffective

Q: With CCN1CC2(COC(=O)c3cc(I)ccc3N3C(=O)CC(C)C3=O)CCC(OC)C34C5CC6C(OC)CC(O)(C5C6OC)C(O)(C(OC)C23)C14 (stereo not shown) (as salt: citrate) [iodo-MLA, Iodo-methyllycaconitine] as the compound, how does the melting point read?
A: 115 to 116 °C

Q: For CN1CCCC1c1cccnc1 (single isomer, unassigned; (-)) [(-)-Nicotine], which “displacing [^125I]iodo-MLA (in words)” value [2] is on record?
A: weak or ineffective
